Test results as given in publication PMC11213934, “Allosteric modulators of M1 muscarinic receptors enhance acetylcholine efficacy and decrease locomotor activity and turning behaviors in zebrafish” (Scientific Reports, 2024).
“Also recorded” adds a separate entry of the source. Marks after values point to notes of the source that are not given here.

How the values were obtained:
[1] = molecular target: T1, human M1 muscarinic receptors (Homo sapiens, UniProt P11229); test: [3H]-arachidonic acid release in CHO cells expressing M1 receptors, with and without ACh (single modulator concentration, four-parameter curves); type: cell-based; parameters: expressed in transfected cells; host or cells: CHO cells stably transfected with hM1, obtained from Mark Brann's laboratory (NIH); conditions: for 0.1 µM ACh: response with modulator present divided by response to ACh alone / 100 µM ACh: response with modulator present divided by response to ACh alone / No ACh: agonist effect of the allosteric ligand by itself, fraction of the maximal response that could be elicited by ACh: modulator 10 µM, CHO-hM1, mean ± s.e.m.; for No ACh: agonist effect of the allosteric ligand by itself, fraction of the maximal response that could be elicited by ACh: at least 4 determinations; for Effect on M1 receptor activity and ACh response, in words: modulators at 10 µM (amiodarone 30 µM)
T1 sequence (P11229 1-460): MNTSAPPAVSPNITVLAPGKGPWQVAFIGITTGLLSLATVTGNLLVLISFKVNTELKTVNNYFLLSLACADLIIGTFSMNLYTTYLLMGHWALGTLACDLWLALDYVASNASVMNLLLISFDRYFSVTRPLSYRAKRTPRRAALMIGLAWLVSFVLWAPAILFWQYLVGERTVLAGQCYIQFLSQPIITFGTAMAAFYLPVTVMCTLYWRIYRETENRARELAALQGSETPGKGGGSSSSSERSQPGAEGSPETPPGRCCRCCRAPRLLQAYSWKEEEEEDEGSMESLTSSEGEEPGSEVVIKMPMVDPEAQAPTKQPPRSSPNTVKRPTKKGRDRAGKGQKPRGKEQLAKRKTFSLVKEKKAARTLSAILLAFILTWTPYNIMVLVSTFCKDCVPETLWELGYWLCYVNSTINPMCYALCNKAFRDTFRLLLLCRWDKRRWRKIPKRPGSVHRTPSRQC

[2] = molecular target: T1, human M1 muscarinic receptors; test: [3H]AA release ACh dose-response families fitted to an allosteric operational model; conditions: for Affinity-B, logKB: given as logKB (negative log value), allosteric site; for Affinity-B, logKB / Operational efficacy-B, τB: Em set to 2.0; for Operational efficacy-B, τB: best-fit ± s.e.m.
Description: Stably transfected CHO-hM1 cells were seeded on 24-well plates (Greiner Bio-One GmbH, Frickenhausen, Germany) at a density of 5.0 × 10^4 cells/well in 0.5 ml of F-12 medium. Cells were incubated until they attached (approximately 3 h), followed by the addition of [^3H]AA to a final concentration of 0.05 μCi of [^3H]AA per well. The cells were then grown for 16 to 20 h before the assay was performed. [^3H]AA release was measured in Eagle’s basal medium with 20 mM HEPES and 2 mg/ml fatty acid-free bovine serum albumin (EM-BSA). Cells were rinsed twice with EM-BSA, followed by the addition of EM-BSA media containing experimental agents and incubated for 1 h at 37 °C. The assay was terminated by aspiration of the media, and the amount of [^3H]AA released was determined by liquid scintillation counting (Beckman-Coulter LS6500).
Tabulated [^3H]AA release data are represented as a fraction of maximal release elicited by ACh or as the fraction of release elicited by the relevant concentration of ACh alone, as indicated. Dose-response curves were normalized to the maximal response of ACh without allosteric ligand. Where indicated, response curves were analyzed using the empirical four-parameter equation: Y=Top+Bottom-Top/1+X/C50^n where X is the concentration of the ligand used, Y is the amount of response, C50 is the concentration of the ligand that produces 50% of the maximal effect, Top and Bottom are the top and bottom plateaus of the curve, and n is related to the Hill slope for the curve. Where indicated, families of response curves were analyzed according to an allosteric operational model[50],[51]: Y=EM[τAA(KB+αβB)+τBBKA]/[τAA(KB+αβB)+τBBKA+AKB+KAKB+KAB+αAB] where EM is the maximal response; A is the concentration of ACh; B is the concentration of the allosteric ligand; τA and τB represent the operational efficacies of A and B, respectively; KA and KB are the equilibrium dissociation constants of A and B; and α and β represent the cooperativities between A and B in terms of binding and activation, respectively. Curve-fitting was carried out with GraphPad Prism, version 5.0 or 6.0 (San Diego CA).

[3] = test system: wild-type (AB) zebrafish (Danio rerio); type: in vivo; conditions: compound at 10 µM relative to controls; mean ± s.e.m., N = 12
[4] = test system: wild-type (AB) zebrafish (Danio rerio); test: Maximum tolerated concentration (MTC) determination in larval zebrafish; type: in vivo; conditions: for MTC (maximum tolerated concentration): after 24 h exposure, 5 dpf larvae; for Concentration up to which no signs of toxicity were produced: highest concentration tested
[5] = test system: wild-type (AB) zebrafish (Danio rerio); test: animal or person; type: in vivo; conditions: for Effect on locomotor activity and turning behaviors, in words: 30 min spontaneous swimming period; for Distance moved / Variance turn angle: compound at 10 µM relative to controls, mean ± s.e.m., N = 12; for MEC: locomotor behaviors; for Concentration with significant effects on locomotor behaviors: AB zebrafish

SMILES | 0.1 µM ACh: response with modulator present divided by response to ACh alone [1] | 100 µM ACh: response with modulator present divided by response to ACh alone [1] | No ACh: agonist effect of the allosteric ligand by itself, fraction of the maximal response that could be elicited by ACh [1] | Effect on M1 receptor activity and ACh response, in words [1] | Affinity-B, logKB [2] | Angular velocity [3] [%] | MTC (maximum tolerated concentration) [4] [µM] | Effect on locomotor activity and turning behaviors, in words [5] | Distance moved [5] | Variance turn angle [5] | MEC [5] [µM] | Operational efficacy-B, τB [2] | Concentration up to which no signs of toxicity were produced [4] [µM] | Therap. index [5] | Concentration with significant effects on locomotor behaviors [5] [µM] | Kb ([2]; read-out: KB, affinity for M1 muscarinic receptors, allosteric operational model) [nM]
CCN(CC)CCOc1ccc(CN2C(=O)C(=O)c3ccccc32)cc1 [Compound 7, 1-(4-(2-(diethylamino)ethoxy)benzyl)indoline-2,3-dione] | 0.06 ± 0.01 | 1.11 ± 0.06 | 0.02 ± 0.01 | primarily decreased potency and slightly enhanced the efficacy of ACh; also recorded: lacked intrinsic activity; also recorded: decreased ACh potency with little impact on ACh efficacy | −6.20 ± 0.33 | 122.4 ± 6.9 | 10 | not effective in reducing locomotor activity or elevating angular velocity or variance of turn angle | 72.5 ± 11.8% | 93.9 ± 10.6% | > 10 | – | – | – | – | –
COc1c(I)cc(CN2C(=O)C(=O)c3ccccc32)cc1I [Compound 8a, 1-(3,5-diiodo-4-methoxybenzyl)indoline-2,3-dione] | 2.44 ± 0.21 | 1.62 ± 0.06 | 0.24 ± 0.04 | significant enhancement of ACh activity; also recorded: dramatically enhanced ACh efficacy | −6.26 ± 0.15 | 197.1 ± 19.8 | > 30 | reduced locomotor activity | 45.8 ± 6.4*** % | 161.1 ± 13.4*** % | 0.3 | 0.17 ± 0.03 | ≥ 30 | > 100 | 1 | –
COc1c(Br)cc(CN2C(=O)C(=O)c3ccccc32)cc1Br [Compound 8c, 1-(3,5-dibromo-4-methoxybenzyl)indoline-2,3-dione] | 2.62 ± 0.19 | 1.42 ± 0.09 | 0.19 ± 0.03 | dramatically enhanced ACh efficacy | −5.53 ± 0.15 | 201.6 ± 20.2 | > 30 | – | 26.9 ± 3.7*** % | 150.8 ± 12.0*** % | 0.1 | 0.33 ± 0.06 | ≥ 30 | – | 1 | 3000
